# Test results from patent US4096263A, “1,2,3,4-Tetrahydroisoquinolines and the preparation thereof” (Fujisawa Pharmaceutical Co., Ltd., priority 1975, dated 1978).
# Counter-ions that a name gives are not always drawn.
# Test system: jejunum of the dog
# Experiment: Intestinal Motility in Dogs (balloon at the jejunum, inhibition of motility in anesthetized mongrel dogs)
# Assay type: in vivo
# Experimental: Intestinal Motility in Dogs Method: Mongrel dogs weighing 8 to 16 kg which were withheld from any food and water for 24 hours were anesthetized with a combination of urethane (1.5 g/kg) and morphine (15 mg/kg). A balloon was placed at the jejunum of the dog, compressed at a pressure of 10 cm. H2 O, and connected to a strain gauge. Changes in the motility were mainly recorded in terms of amplitude, but taking account of the number of movements. The maximum change of all the determinations, served as the calculation of the 50% inhibition dose (ED50). The time required for 80% recovery was considered as a duration of action.
smiles,measurement,setting,value
"Cn1nnnc1NCC1NCCc2cc(O)c(O)cc21 (centres unmarked) [Test Compound, 1-(1-Methyl-1H-tetrazol-5-yl)aminomethyl-6,7-dihydroxy-1,2,3,4-tetrahydroisoquinoline hydrochloride trihemihydrate]",ED50,"Canis lupus familiaris, anesthetized mongrel dogs (urethane 1.5 g/kg and morphine 15 mg/kg), jejunal balloon at 10 cm. H2O, maximum change of motility, mainly amplitude, route not stated, read-out: ED50 (50% inhibition dose)",1 µg/kg
same,Duration of Action,"time required for 80% recovery, anesthetized mongrel dogs, jejunal balloon, dose and route not stated",25 min
